Numbers after ± are expanded uncertainties.

A short description of this data set: activity coefficient (dimensionless); of the first substance listed, at infinite dilution; xn = mol fraction of the nth substance listed. The note with it: 101 kPa, Liquid, Chromatography, x1 = 0.

With `Cc1ccccc1C` [1,2-dimethylbenzene] + CCCC[n+]1ccc(C)cc1.N#CC(=C=[N-])C#N, the activity coefficient (318.15 K) stood at 1.4 ± 0.09; the activity coefficient (328.15 K) was 1.45 ± 0.1; the activity coefficient (338.15 K) stood at 1.49 ± 0.1; the activity coefficient (348.15 K) was 1.56 ± 0.1; the activity coefficient (358.15 K) came out at 1.61 ± 0.11; the activity coefficient (368.15 K) is 1.66 ± 0.11.

`Cc1cccc(C)c1` [1,3-dimethylbenzene] + CCCC[n+]1ccc(C)cc1.N#CC(=C=[N-])C#N: the activity coefficient came out at 1.71 ± 0.11 (328.15 K); 1.76 ± 0.12 (338.15 K); 1.82 ± 0.12 (348.15 K); 1.88 ± 0.13 (358.15 K); 1.94 ± 0.13 (368.15 K).

Take `Cc1ccc(C)cc1` [1,4-dimethylbenzene] + CCCC[n+]1ccc(C)cc1.N#CC(=C=[N-])C#N: the activity coefficient is, setting by setting: (328.15 K) 1.66 ± 0.11; (338.15 K) 1.71 ± 0.11; (348.15 K) 1.79 ± 0.12; (358.15 K) 1.84 ± 0.12; (368.15 K) 1.9 ± 0.13.

For the molecule `C1COCCO1` [1,4-dioxane] + CCCC[n+]1ccc(C)cc1.N#CC(=C=[N-])C#N, the activity coefficient amounted to 0.573 ± 0.041 (318.15 K); 0.601 ± 0.042 (328.15 K); 0.624 ± 0.043 (338.15 K); 0.656 ± 0.045 (348.15 K); 0.68 ± 0.046 (358.15 K); 0.708 ± 0.047 (368.15 K).

Take `C#CCCCCC` [1-heptyne] + CCCC[n+]1ccc(C)cc1.N#CC(=C=[N-])C#N: the activity coefficient reads like this: (318.15 K) 4.09 ± 0.28; (328.15 K) 4.15 ± 0.28; (338.15 K) 4.22 ± 0.29; (348.15 K) 4.29 ± 0.29; (358.15 K) 4.34 ± 0.3; (368.15 K) 4.43 ± 0.3.

Regarding `C#CCCCC` [1-hexyne] + CCCC[n+]1ccc(C)cc1.N#CC(=C=[N-])C#N, the activity coefficient is, setting by setting: (318.15 K) 2.98 ± 0.2; (328.15 K) 3.04 ± 0.21; (338.15 K) 3.1 ± 0.21; (348.15 K) 3.17 ± 0.22; (358.15 K) 3.25 ± 0.22; (368.15 K) 3.3 ± 0.22.

Take `CCC[N+](=O)[O-]` [1-nitropropane] + CCCC[n+]1ccc(C)cc1.N#CC(=C=[N-])C#N: the activity coefficient is 0.748 ± 0.049 (328.15 K); 0.756 ± 0.05 (338.15 K); 0.769 ± 0.05 (348.15 K); 0.783 ± 0.051 (358.15 K); 0.792 ± 0.052 (368.15 K).

Consider `CC(C)CO` [2-methyl-1-propanol] + CCCC[n+]1ccc(C)cc1.N#CC(=C=[N-])C#N, for which the activity coefficient runs as follows: (318.15 K) 1.33 ± 0.086; (328.15 K) 1.23 ± 0.079; (338.15 K) 1.16 ± 0.074; (348.15 K) 1.11 ± 0.07; (358.15 K) 1.06 ± 0.067; (368.15 K) 1.02 ± 0.064.

On to `CC(C)=O` [acetone] + CCCC[n+]1ccc(C)cc1.N#CC(=C=[N-])C#N, for which the activity coefficient (318.15 K) was determined as 0.598 ± 0.042; the activity coefficient (328.15 K) came to 0.617 ± 0.043; the activity coefficient (338.15 K) turned out to be 0.634 ± 0.044; the activity coefficient (348.15 K) was 0.656 ± 0.045; the activity coefficient (358.15 K) is 0.672 ± 0.046; the activity coefficient (368.15 K) stood at 0.686 ± 0.046.

`CC#N` [acetonitrile] + CCCC[n+]1ccc(C)cc1.N#CC(=C=[N-])C#N: the activity coefficient turned out to be 0.584 ± 0.041 (318.15 K); 0.59 ± 0.04 (328.15 K); 0.593 ± 0.042 (338.15 K); 0.599 ± 0.042 (348.15 K); 0.604 ± 0.042 (358.15 K); 0.613 ± 0.043 (368.15 K).

Turning to `c1ccccc1` [benzene] + CCCC[n+]1ccc(C)cc1.N#CC(=C=[N-])C#N, the activity coefficient by setting is: (318.15 K) 0.889 ± 0.057; (328.15 K) 0.916 ± 0.058; (338.15 K) 0.937 ± 0.059; (348.15 K) 0.976 ± 0.061; (358.15 K) 1 ± 0.06; (368.15 K) 1.02 ± 0.06.

With `CCCCO` [butan-1-ol] + CCCC[n+]1ccc(C)cc1.N#CC(=C=[N-])C#N, the activity coefficient by setting is: (318.15 K) 1.31 ± 0.09; (328.15 K) 1.23 ± 0.08; (338.15 K) 1.17 ± 0.07; (348.15 K) 1.13 ± 0.07; (358.15 K) 1.09 ± 0.07; (368.15 K) 1.05 ± 0.07.

`C1CCCCCC1` [cycloheptane] + CCCC[n+]1ccc(C)cc1.N#CC(=C=[N-])C#N: the activity coefficient (318.15 K) came out at 12.8 ± 0.9; the activity coefficient (328.15 K) worked out at 12.1 ± 0.8; the activity coefficient (338.15 K) was 11.7 ± 0.8; the activity coefficient (348.15 K) was determined as 11.1 ± 0.8; the activity coefficient (358.15 K) is 10.6 ± 0.7; the activity coefficient (368.15 K) amounted to 10.3 ± 0.7.

For `C1CCCCC1` [cyclohexane] + CCCC[n+]1ccc(C)cc1.N#CC(=C=[N-])C#N, the activity coefficient (318.15 K) came to 11.1 ± 0.8; the activity coefficient (328.15 K) is 10.5 ± 0.7; the activity coefficient (338.15 K) was 10 ± 0.7; the activity coefficient (348.15 K) came to 9.57 ± 0.65; the activity coefficient (358.15 K) is 9.07 ± 0.62; the activity coefficient (368.15 K) stood at 8.65 ± 0.59.

As for `CCCCCCCCCC` [decane] + CCCC[n+]1ccc(C)cc1.N#CC(=C=[N-])C#N, the activity coefficient reads like this: (318.15 K) 90.4 ± 6.2; (328.15 K) 83 ± 5.7; (338.15 K) 76.5 ± 5.2; (348.15 K) 72.6 ± 5; (358.15 K) 67.7 ± 4.6; (368.15 K) 62.8 ± 4.3.

With `CCO` [ethanol] + CCCC[n+]1ccc(C)cc1.N#CC(=C=[N-])C#N, the activity coefficient by setting is: (318.15 K) 0.917 ± 0.058; (328.15 K) 0.876 ± 0.056; (338.15 K) 0.838 ± 0.054; (348.15 K) 0.812 ± 0.053; (358.15 K) 0.784 ± 0.051; (368.15 K) 0.755 ± 0.05.

Take `CCOC(C)=O` [ethyl acetate] + CCCC[n+]1ccc(C)cc1.N#CC(=C=[N-])C#N: the activity coefficient runs as follows: (318.15 K) 1.3 ± 0.08; (328.15 K) 1.33 ± 0.09; (338.15 K) 1.36 ± 0.09; (348.15 K) 1.4 ± 0.09; (358.15 K) 1.42 ± 0.09; (368.15 K) 1.46 ± 0.1.

`CCc1ccccc1` [ethylbenzene] + CCCC[n+]1ccc(C)cc1.N#CC(=C=[N-])C#N: the activity coefficient (318.15 K) turned out to be 1.78 ± 0.12; the activity coefficient (328.15 K) turned out to be 1.83 ± 0.12; the activity coefficient (338.15 K) turned out to be 1.87 ± 0.13; the activity coefficient (348.15 K) came to 1.93 ± 0.13; the activity coefficient (358.15 K) is 1.98 ± 0.13; the activity coefficient (368.15 K) turned out to be 2.01 ± 0.14.

`CCCCCCC` [heptane] + CCCC[n+]1ccc(C)cc1.N#CC(=C=[N-])C#N: the activity coefficient was 33.7 ± 2.3 (318.15 K); 31.3 ± 2.1 (328.15 K); 29.7 ± 2 (338.15 K); 27.6 ± 1.9 (348.15 K); 25.8 ± 1.8 (358.15 K); 24.7 ± 1.7 (368.15 K).

Regarding `C=CCCCC` [hex-1-ene] + CCCC[n+]1ccc(C)cc1.N#CC(=C=[N-])C#N, the activity coefficient stood at 11.1 ± 0.8 (318.15 K); 10.5 ± 0.7 (328.15 K); 10.2 ± 0.7 (338.15 K); 9.72 ± 0.66 (348.15 K); 9.17 ± 0.63 (358.15 K); 8.75 ± 0.6 (368.15 K).

For `CCCCCC` [hexane] + CCCC[n+]1ccc(C)cc1.N#CC(=C=[N-])C#N, the activity coefficient by setting is: (318.15 K) 24.3 ± 1.7; (328.15 K) 23 ± 1.6; (338.15 K) 22.1 ± 1.5; (348.15 K) 20.8 ± 1.4; (358.15 K) 20 ± 1.4; (368.15 K) 19.1 ± 1.3.

These data come from the NIST ThermoML archive (doi:10.1016/j.jct.2014.12.027).
